Source: ChEMBL document CHEMBL1127328, “Copper complexation by 3-hydroxypyridin-4-one iron chelators: structural and iron competition studies” (J Med Chem, 1994)

Columns and labels:
Type in all cases: ADME
[1] = Acid dissociation constant was determined
[2] = log K1 value of the compound
[3] = log K2 value of the compound
[4] = log K3 value of the compound

SMILES | pKa ([1]; read-out: pKa1) | pKa ([1]; read-out: pKa2) | Log K1 [2] | Log K2 [3] | Log K3 [4]
O=C(O)CCn1ccc(=O)c(O)c1 | 2.92 | 8.91 | 9.48 | 7.48 | –
Cc1c(O)c(=O)ccn1C [DEFERIPRONE] | 3.84 | 9.86 | 11.48 | 10.22 | 5.64
Cn1ccc(=O)c(O)c1 | 3.35 | 8.8 | 9.35 | 7.58 | –
Oc1ccncc1O | 3.36 | – | 9.49 | 7.64 | –

Further lines, with some results ahead:

pKa ([1]; read-out: pKa1) | pKa ([1]; read-out: pKa2) | Log K1 [2] | Log K2 [3] | SMILES | Log K3 [4]
3.79 | 9.79 | – | – | CCn1ccc(=O)c(O)c1C | –
3.93 | 10.1 | 13.18 | 7.03 | CCc1c(O)c(=O)ccn1CC | 2.65
3.74 | 9.7 | – | – | CCc1c(O)c(=O)ccn1C | –
